Six compounds from EP4154878A1, “APPLICATION OF ACTIVE […] ROOT OF […] OR PHARMACEUTICALLY ACCEPTABLE SALT THEREOF IN PREPARING ANTIVIRAL DRUG” (priority 2020, dated 2021) can be followed below.

Holding throughout (type): cell-based
The subject of one data set is cell Vero-E6. Briefly: Cytotoxicity detection (CCK-8), cell Vero-E6. The following applies: for toxic effect on the cell Vero-E6: 48 hours, CCK-8; for cytotoxicity: within the effective concentration range, cell not named. On the procedure: (§1) • 1. Method: • 1) Cell inoculation: Cells Vero-E6 and 293T/ACE2 in a logarithmic growth period were taken, cell densities thereof were adjusted to 1^∗10^4 cells/well, and 100 µL/well thereof were respectively inoculated on a 96-well plate and cultured overnight. • 2) Drug concentration design: Before administration, a drug was diluted to nine concentration gradients with a DMEM medium containing fetal bovine serum of 2% of a total volume twice multiple proportions, and an initial concentration of the drug was set to 200 µM (200, 100, 50, 25, 12.5, 6.25, 3.125, 1.5625, 0.78125 µM), and 100 µL per well of a diluted drug was taken to be added into the cells Vero-E6 and 293T/ACE2 in the 96-well plate in 1), with a final volume of 200 µL per well. Triplicate wells were set for each drug concentration. A DMSO solvent treatment group was used as a blank control. • 3) Absorbance detection: After incubation in an incubator for 48 hours, 10 µL of a CCK-8 working solution was added into each well, and incubation continued to be conducted in the incubator for 3 hours. The absorbance at 450 nm was measured by a microplate reader. • 4) According to measured OD values, survival rates of the cells Vero-E6 and 293T/ACE2 under the action of various concentrations of the drug were calculated respectively compared with the control group. • 2.
(§2) • 1. Method: • 1) Cell inoculation: Cells Vero-E6 and 293T/ACE2 in a logarithmic growth period were taken, cell densities thereof were adjusted to 1^∗10^4 cells/well, and 100 µL/well thereof were respectively inoculated on a 96-well plate and cultured overnight in a 37°C cell incubator. • 2) Drug concentration design: Before administration, a drug was diluted to eight concentration gradients with a DMEM medium containing fetal bovine serum of 2% of a total volume twice multiple proportions. Cell Vero-E6: an initial concentration was set to 200 µM (200, 100, 50, 25, 12.5, 6.25, 3.125, 1.5625 µM), and 100 µL per well of a diluted drug was taken to be added into the cell Vero-E6 in the 96-well plate in 1), with a final volume of 200 µL per well. Triplicate wells were set for each drug concentration. A DMSO solvent treatment group was used as a blank control. Cell 293T/ACE2: an initial concentration was set to 100 µM (100, 50, 25, 12.5, 6.25, 3.125, 1.5625, 0.78125 µM), and 100 µL per well of a diluted drug was taken to be added into the cell 293T/ACE2 in the 96-well plate in 1), with a final volume of 200 µL per well. Triplicate wells were set for each drug concentration. A DMSO solvent treatment group was used as a blank control. • 3) Absorbance detection: After incubation in an incubator for 48 hours, 10 µL of a CCK-8 working solution was added into each well, and incubation continued to be conducted in the incubator for 3 hours. The absorbance at 450 nm was measured by a microplate reader. • 4) According to measured OD values, survival rates of the cells Vero-E6 and 293T/ACE2 under the action of various concentrations of the drug were calculated respectively compared with the control group.
• 1. Method: • 1) Cell inoculation: Cells Vero-E6 and 293T/ACE2 in a logarithmic growth period were taken, cell densities thereof were adjusted to 1^∗10^4 cells/well, and 100 µL/well thereof were respectively inoculated on a 96-well plate and cultured overnight. • 2) Drug concentration design: Before administration, a drug was diluted to nine concentration gradients with a DMEM medium containing fetal bovine serum of 2% of a total volume twice multiple proportions, and an initial concentration was set to 200 µM (200, 100, 50, 25, 12.5, 6.25, 3.125, 1.5625, 0.78125 µM), and 100 µL per well of a diluted drug was taken to be added into the cells Vero-E6 and 293T/ACE2 in the 96-well plate in 1), with a final volume of 200 µL per well. Triplicate wells were set for each drug concentration. […]

In another data set the test system is SARS-CoV-2. Briefly: microbe, parasite or virus in culture. The note with it: read-out: half effective concentration EC50 on activity of SARS-CoV-2.
A further data set relates to cell 293T/ACE2. Briefly: Cytotoxicity detection (CCK-8), cell 293T/ACE2. The following applies: 48 hours. On the procedure:
as §1
as §2, with “Cell 293T/ACE2: an initial concentration was set to 100 µM (100, 50, 25, 12.5, 6.25, 3.125, 1.5625, 0.78125 µM), and 100 µL per well of a diluted drug was taken to be added into the cell 293T/ACE2 in the 96-well plate in 1), with a final volume of 200 µL per well. Triplicate wells were set for each drug concentration.” left out, “group. […]” for “group.”

In a further data set the test system is SARS-CoV-2 pseudovirus. The experiment in a line: microbe, parasite or virus in culture. The note with it: Severe acute respiratory syndrome-related coronavirus, 293T/ACE2, 48 h, read-out: half inhibitory concentration IC50 to inhibit entering of the SARS-CoV-2 pseudovirus into a target cell.
Setting [1] is: at 100 µM and within an effective concentration range.
The mark [2] stands for this setting: Severe acute respiratory syndrome coronavirus 2, Vero C1008, 24 h.
[3] abbreviates: at 200 µM and within an effective concentration range.

Where two headings read alike, the source gives them in different places.

Consider `Cc1coc2c1C(=O)C(=O)c1c-2ccc2c(C)cccc12` [Tanshinone I], for which the “toxic effect on the cell Vero-E6” value with cell Vero-E6 (setting [1]) is on record as “no obvious toxic effect”. For the same compound, the cytotoxicity entry in the data set on cell Vero-E6 was “no obvious cytotoxicity”. Moreover, the EC50 in the data set with SARS-CoV-2 came to 2.98 µM.
As to `C[C@H]1COC2=C1C(=O)C(=O)c1c2ccc2c1CCCC2(C)C` [cryptotanshinone, Cryptotanshinone], the “toxic effect on the cell Vero-E6” value in the data set on cell Vero-E6 (setting [1]) was “no obvious toxic effect”. For the same compound, in the data set with cell Vero-E6, the cytotoxicity result is given as “no obvious cytotoxicity”. For the same compound, in the data set with SARS-CoV-2 (setting [2]), the EC50 was 1.46 µM.
Consider `Cc1cccc2c3c(ccc12)C1=C(C(=O)C3=O)[C@@H](C)CO1` [dihydrotanshinone I], for which, in the data set with cell Vero-E6 (at 10 µM and within an effective concentration range), the “toxic effect on the cell Vero-E6” value is given as “no obvious toxic effect”. Further, the cytotoxicity result with cell Vero-E6 is reported as “no obvious cytotoxicity”. For the same compound, the “toxic effect on the cell 293T/ACE2” value in the data set on cell 293T/ACE2 (at 2.5 µM and within an effective concentration range) is “no obvious toxic effect”. In addition, in the data set on SARS-CoV-2 pseudovirus, the IC50 turned out to be 0.68 µM. In addition, the EC50 in the data set on SARS-CoV-2 (setting [2]) turned out to be 0.64 µM.
Consider `O=C(O)[C@H](O)Cc1ccc(O)c(O)c1` [salvianic acid A], for which the “toxic effect on the cell Vero-E6” value in the data set with cell Vero-E6 (setting [3]) is recorded as “no obvious toxic effect”. Also, in the data set on cell Vero-E6, the cytotoxicity entry is on record as “no obvious cytotoxicity”. For the same compound, in the data set on cell 293T/ACE2 (setting [3]), the “toxic effect on the cell 293T/ACE2” value is on record as “no obvious toxic effect”. Further, in the data set with SARS-CoV-2 pseudovirus, the IC50 was determined as 2.7 µM. Also, the EC50 in the data set on SARS-CoV-2 (setting [2]) amounted to 1.07 µM.
For `O=C(/C=C/c1ccc(O)c2c1[C@H](C(=O)O[C@H](Cc1ccc(O)c(O)c1)C(=O)O)[C@@H](c1ccc(O)c(O)c1)O2)O[C@H](Cc1ccc(O)c(O)c1)C(=O)O` [salvianolic acid B], the “toxic effect on the cell Vero-E6” value with cell Vero-E6 (setting [3]) is on record as “no obvious toxic effect”. Also, the cytotoxicity result with cell Vero-E6 is “no obvious cytotoxicity”. For the same compound, the “toxic effect on the cell 293T/ACE2” value with cell 293T/ACE2 (setting [1]) is reported as “no obvious toxic effect”. Moreover, the IC50 with SARS-CoV-2 pseudovirus worked out at 0.416 µM. Besides, in the data set on SARS-CoV-2 (setting [2]), the EC50 stood at 55.5 µM.
For the compound `O=C(/C=C/c1ccc(O)c2oc(-c3ccc(O)c(O)c3)cc12)O[C@H](Cc1ccc(O)c(O)c1)C(=O)O` [salvianolic acid C], in the data set on cell Vero-E6 (setting [3]), the “toxic effect on the cell Vero-E6” value is “no obvious toxic effect”. For the same compound, the cytotoxicity result with cell Vero-E6 is on record as “no obvious cytotoxicity”. Moreover, in the data set on cell 293T/ACE2 (setting [3]), the “toxic effect on the cell 293T/ACE2” value is “no obvious toxic effect”. In addition, the IC50 with SARS-CoV-2 pseudovirus was 5.9 µM. The EC50 in the data set on SARS-CoV-2 (setting [2]) was determined as 3.41 µM.
